# Laboratory results: patent US20200347264A1, “COMPOSITIONS FOR CONTAINERS AND OTHER ARTICLES AND METHODS OF USING SAME” (SWIMC LLC, priority 2012, published 2020)
# Biological target: T1, human estrogen receptor (Homo sapiens, UniProt P03372)
# T1 sequence (P03372 1-595): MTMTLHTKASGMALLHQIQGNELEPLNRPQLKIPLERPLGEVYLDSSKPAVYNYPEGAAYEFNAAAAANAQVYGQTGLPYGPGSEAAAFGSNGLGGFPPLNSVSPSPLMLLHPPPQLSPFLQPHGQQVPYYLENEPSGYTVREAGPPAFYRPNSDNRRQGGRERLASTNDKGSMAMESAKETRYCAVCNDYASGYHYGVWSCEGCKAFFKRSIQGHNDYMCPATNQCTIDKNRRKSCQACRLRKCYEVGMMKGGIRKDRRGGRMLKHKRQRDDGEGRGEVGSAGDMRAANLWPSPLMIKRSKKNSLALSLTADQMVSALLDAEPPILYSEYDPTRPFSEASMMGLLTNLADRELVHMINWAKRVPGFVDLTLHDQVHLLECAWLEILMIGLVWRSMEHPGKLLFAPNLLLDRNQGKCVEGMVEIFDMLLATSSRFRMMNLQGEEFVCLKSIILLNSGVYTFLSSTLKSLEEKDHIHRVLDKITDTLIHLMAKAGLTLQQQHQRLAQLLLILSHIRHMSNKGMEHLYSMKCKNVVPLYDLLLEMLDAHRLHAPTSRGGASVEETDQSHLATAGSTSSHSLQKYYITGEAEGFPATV
# Assay: in vitro assay of estrogenic activity correlated to the MCF-7 assay
# Format: cell-based
# Details: suitable in vitro assay correlated to MCF-7 assay; assay not named for hydroquinone
row,SMILES,estrogenic activity
1,Oc1ccc(O)cc1 [hydroquinone],appreciably non-estrogenic
2,CC(C)(C)c1cc(O)c(C(C)(C)C)cc1O,does not exhibit appreciable estrogenic activity

# System: MCF-7, clone WS8, cells
# Assay: MCF-7 cell proliferation assay of estrogenic activity
# Format: cell-based, human
# Details: logarithmic (base 10) Relative Proliferative Effect vs 17-beta estradiol in the MCF-7 assay; values called expected or measured
# Text: The MCF-7 assay uses MCF-7, clone WS8, cells to measure whether and to what extent a substance induces cell proliferation via estrogen receptor (ER)-mediated pathways. The method is described in “Test Method Nomination: MCF-7 Cell Proliferation Assay of Estrogenic Activity” submitted for validation by CertiChem, Inc. to the National Toxicology Program Interagency Center for the Evaluation of Alternative Toxicological Methods (NICEATM) on Jan. 19, 2006 (available online at http://iccvam.niehs.nih.gov/methods/endocrine/endodocs/SubmDoc.pdf).
# A brief summary of the method of the aforementioned MCF-7 assay is provided below. MCF-7, clone WS8, cells are maintained at 37° C. in RMPI (Roswell Park Memorial Institute medium) containing Phenol Red (e.g., GIBCO Catalog Number 11875119) and supplemented with the indicated additives for routine culture. An aliquot of cells maintained at 37° C. are grown for 2 days in phenol-free media containing 5% charcoal stripped fetal bovine serum in a 25 cm^2 tissue culture flask. Using a robotic dispenser such as an epMotion 5070 unit, MCF-7 cells are then seeded at 400 cells per well in 0.2 ml of hormone-free culture medium in Corning 96-well plates. The cells are adapted for 3 days in the hormone-free culture medium prior to adding the test chemical to be assayed for activity. The media containing the test chemical is replaced daily for 6 days. At the end of the 7-day exposure to the test chemical, the media is removed, the wells are washed once with 0.2 ml of HBSS (Hanks' Balanced Salt Solution), and then assayed to quantify amounts of DNA per well using a micro-plate modification of the Burton diphenylamine (DPA) assay, which is used to calculate the level of cell proliferation.
# RPE is the ratio between the EC50 of the test chemical and the EC50 of the control substance 17-beta estradiol times 100, where EC50 is “effective concentration 50^0/” or half-maximum stimulation concentration for cell proliferation measured as total DNA in the MCF-7 assay.
row,SMILES,Log RPE
1,CC(C)(C)c1cc(O)c(C(C)(C)C)cc1O,less than −4
2,CC(C)(c1cc(Br)c(O)c(Br)c1)c1cc(Br)c(O)c(Br)c1,−3
3,O=S(=O)(c1ccc(O)cc1)c1ccc(O)cc1 [Bisphenol S],−2
4,C[C@]12CC[C@@H]3c4ccc(O)cc4CC[C@H]3[C@@H]1CC[C@@H]2O [17β-estradiol],2.00
5,CC(C(=O)O)(c1ccc(O)cc1)c1ccc(O)cc1,less than −4
